For test [1], the system named is platelets. Nature of the test: Integrin αIIbβ3 activation (fibrinogen binding). The format is cell-based, human. The following applies: in response to U46619; RA pre-treatment 1 hour. As to the method: To validate the predictive power of the developed framework, direct experimental evidence of the predicted mechanistic role of Rosmarinic acid (RA) in VD was sought. […] Therefore, whether RA influenced platelet activation in vitro was evaluated. As platelets can be stimulated through different activation pathways, RA effects can, in principle, occur in any of them. To test these different possibilities, platelets were pretreated with RA and then activated with: 1) glycoprotein VI by collagen or collagen-related peptide (Collagen/CRPXL); 2) protease-activated receptors-1,4 by thrombin receptor activator peptide-6 (TRAP-6); 3) prostanoid thromboxane receptor by the thromboxane A2 analogue (U46619); and 4) P2Y1/12 receptor stimulation by adenosine diphosphate (ADP). When the network distance between each stimulant receptor and the RA-VD-platelet module (FIG. 11A) was compared, it was observed that the receptors for Collagen/CRPXL, TRAP-6, and U46619 are closer than the random expectation, while the receptor for ADP is more distant (FIG. 11B). It is expected that platelets would be most affected by RA when treated with stimulants whose receptors are most proximal to the RA-VD-platelet module, i.e. Collagen/CRPXL, TRAP-6, and U46619. […] Percent-positive cells were determined by gating on fluorescence intensity compared to unstimulated samples.

In test [2] the test system is platelets. Nature of the test: Platelet functions after ADP stimulation (control, distant receptor). The format is cell-based, human. The following applies: stimulant whose receptor is distant from the RA-VD-module (ADP). As to the method: To validate the predictive power of the developed framework, direct experimental evidence of the predicted mechanistic role of Rosmarinic acid (RA) in VD was sought. […] Therefore, whether RA influenced platelet activation in vitro was evaluated. As platelets can be stimulated through different activation pathways, RA effects can, in principle, occur in any of them. To test these different possibilities, platelets were pretreated with RA and then activated with: 1) glycoprotein VI by collagen or collagen-related peptide (Collagen/CRPXL); 2) protease-activated receptors-1,4 by thrombin receptor activator peptide-6 (TRAP-6); 3) prostanoid thromboxane receptor by the thromboxane A2 analogue (U46619); and 4) P2Y1/12 receptor stimulation by adenosine diphosphate (ADP). […] Platelet aggregation was measured by turbidimetric aggregometry. […] Platelet aggregation was monitored for 6 minutes at 37° C. with a stir speed of 1000 rpm and the maximum extend of aggregation recorded using AGGRO/LINK®8 software. In some cases, dense granule release was simultaneously recorded by supplementing samples with Chrono-Lume® (Chrono-Log®, 395) according to the manufacturer's instructions. […] Percent-positive cells were determined by gating on fluorescence intensity compared to unstimulated samples.

Turning to `O=C(/C=C/c1ccc(O)c(O)c1)O[C@H](Cc1ccc(O)c(O)c1)C(=O)O` [rosmarinic acid], the “integrin αIIbβ3 activation” value with platelets [1] is listed as “dampened”. Also, the platelet functions result in the test with platelets [2] is recorded as “did not affect”.

For the origin of these results see patent US20220184020A1, “Polyphenols as Modulators of Platelet Function” (Northeastern University, priority 2019, published 2022).
